Source: patent publication US12642852B1, “Genomic engineering of pluripotent cells” (Fate Therapeutics, Inc., priority 2015, dated 2026)

How the values were obtained:
[1] = system: CAG-C38 iCasp9 iPSC clone with targeted insertion of sr39TK into H11 locus; assay: Dual suicide gene safe guard system killing in vitro (iCasp9 at AAVS1, sr39TK at H11); assay type: cell-based, human
Source text: In addition to CAG-iCasp9 integrated into AAVS1 locus, CAG-sr39TK was integrated into H11 safe harbor in CAG-C38 clonal iPSC using targeted insertion method described herein.

[2] = system: puro-selected 293T cells with CMV-driven iCasp9 (AAVS1-G1.0) at AAVS1 locus; assay: In vitro inducible killing by AP1903, 7AAD staining and flow cytometry, 293T cells; assay type: cell-based; conditions: AP1903 10 nM or 120 nM, 24 hrs, DMSO control, n=2
Source text: (§1) In vitro inducible killing of iCasp9-integrated iPSCs: The chemical inducer of dimerization (CID; AP1903) was purchased from Medchemexpress (Monmouth Junction, NJ). Twenty-four hours after CID exposure, the cells were harvested and stained with 7-amino actinomycin D (7-AAD) according to the manufacturer's instruction (BD Biosciences). The percentage of 7-AAD positive cells were quantified as dead cells by flow cytometry (Guava, EMD Millipore, Billerica, MA) and analyzed with flowjo software.
A donor construct encompassing CMV-driven iCasp9 (AAVS1-G1.0) was designed to target the AAVS1 locus (FIG. 1A) and to integrate the Casp9 suicide gene to 293T cells. The donor construct also comprise GFP and puromycin genes, the expression of which are driven by AAVS1 endogenous promoter once the targeted insertion takes place (FIG. 1A). 293T cells were transfected with ZFNs specific to AAVS1 locus and the donor construct AAVS1-G1.0. Three days after transfection, the puromycin selection was started and continued for 12 days. The puro-selected population was analyzed by flow cytometry for GFP expression, and a range of GFP expression levels were observed. It was observed that about 82% of the puro-selected cell population expressed GFP (FIG. 1B). […] The treated cells were then harvested and stained with 7AAD, which selectively stains membrane-compromised dying cells, and analyzed by flow cytometry. […]

iCasp9-integrated iPSCs = assay: In vitro inducible killing of iCasp9-integrated iPSCs by AP1903, 7AAD/GFP flow cytometry; assay type: cell-based, human; conditions: for cell death mediated by AP1903 (7AAD negative cells percentage): 24 hrs
Source text: as §1
Similar to 293T cells, hiPSCs were transfected with ZFNs specific to AAVS1 locus and a donor construct encompassing CMV-driven iCasp9 (AAVS1-G1.0). The puromycin selection was started 3 days after transfection and continued for 16 days. The puro-resistant cells were analyzed by flow cytometry for GFP expression. Three populations based on the GFP intensity, GFP (neg), GFP (low) and GFP (hi) were sorted by flow cytometry (FIG. 1E). […] The treated cells were harvested and stained with 7AAD and analyzed by flow cytometry. […] However, in contrast to 293T cells with targeted Casp9 insertion at AAVS1 locus, cell death mediated by the AP1903 was not detected in all treatments in iPSCs with targeted Casp9 insertion at AAVS1 locus (FIG. 1F). […]
Because in the previous study puromycin selection under the AAVS1 promoter was robustly expressed to maintain viability and growth during selection, next a donor construct encompassing iCasp9 was designed to target the AAVS1 locus with endogenous AAVS1 promoter driving iCasp9 gene expression upon insertion (and GFP, and puromycin marker genes) (FIG. 2A). hiPSCs were transfected with ZFNs specific to AAVS1 locus and the donor construct encompassing iCasp9 under the control of AAVS1 endogenous promoter. […] The treated cells were harvested and stained with 7AAD and analyzed by flow cytometry. […] However, cell death mediated by the AP1903 was not detected in all treatments in iPSCs with targeted insertion of Casp9 at AAVS1 locus, and controlled Casp9 expression by endogenous AAVS1 promoter (FIG. 2C). […]

Row | Structure (SMILES) | inducible killing ([1]; 25 μg/mL GCV alone for nine days) | cell death (7AAD negative cells percentage) [2] | cell death mediated by AP1903 (7AAD negative cells percentage) (iCasp9-integrated iPSCs; hiPSCs with CMV-driven iCasp9, GFP (neg), GFP (low), GFP (hi) populations, 10 nM or 100 nM) | AP1903 cell death induction of GFP positive cells (iCasp9-integrated iPSCs; hiPSCs with EF1α-driven iCasp9 at AAVS1, puromycin selected 20 days) | cell death mediated by AP1903 (7AAD negative cells percentage) (iCasp9-integrated iPSCs; iPSCs with iCasp9 under endogenous AAVS1 promoter) | inducible killing ([1]; 10 nM AP1903 alone for two days)
1 | Nc1nc(O)c2ncn(COC(CO)CO)c2n1 [GCV, Ganciclovir] | expanded GCV-refractory cells | – | – | – | – | –
2 | CC[C@H](C(=O)N1CCCC[C@H]1C(=O)O[C@H](CCc1ccc(OC)c(OC)c1)c1cccc(OCC(=O)NCCNC(=O)COc2cccc([C@@H](CCc3ccc(OC)c(OC)c3)OC(=O)[C@@H]3CCCCN3C(=O)[C@@H](CC)c3cc(OC)c(OC)c(OC)c3)c2)c1)c1cc(OC)c(OC)c(OC)c1 [AP1903] | – | Significant cell death was detected | not detected | although few, were responsive | not detected | inducible killing of most cells but rare cells remained
